Earlier results, collected in patent EP2949324A1, “Prevention and/or treatment of ischemia/reperfusion injury” (Consorci Institut Catala de Ciencies Cardiovasculars, priority 2014, dated 2015).

Legend:
[1] = test system: canine cardiac ischemia model; details: infused during reperfusion; cited from earlier work
[2] = cited from earlier work; for infarct size: given pre-ischemia
[3] = test system: canine hepatic ischemia/reperfusion model; details: given prior to reperfusion; cited from earlier work
endothelin receptors = details: cited from earlier work; for cardiac function and myocardial relaxation: at 1 h; for difference compared to placebo-treated animals: at 24 h

CCNC(=O)[C@H]1O[C@@H](n2cnc3c(N)nc(NCCc4ccc(CCC(=O)O)cc4)nc32)[C@H](O)[C@@H]1O [CGS-21680]
Bax [1]: downregulated | Bcl-2 levels [1]: upregulated | neutrophil accumulation in the perinecrotic myocardium [1]: reduced

CS(=O)(=O)O.Cc1cccc2c1cc(C(=O)N=C(N)N)n2C [SM-20550]
effect on infarct size ([2]; given post-ischemia): beneficial | infarct size [2]: reduced infarct size in a dose-dependent manner

Nc1ncnc2c1ncn2[C@@H]1O[C@H](CO)[C@@H](O)[C@H]1O [adenosine, Adenosine]
aspartate aminotransferase (AST) and alanine transaminase (ALT) [3]: attenuated the rise | hepatic glutathione stores [3]: restored | neutrophil accumulation and superoxide radical production [3]: inhibition

O=C(NCCO[N+](=O)[O-])c1cccnc1 [nicorandil]
infarct size [2]: reduced infarct size in a dose-dependent manner

BQ-123
cardiac function and myocardial relaxation (endothelin receptors): significantly better | difference compared to placebo-treated animals (endothelin receptors): no longer evident

BQ-788
cardiac function and myocardial relaxation (endothelin receptors): significantly better | difference compared to placebo-treated animals (endothelin receptors): no longer evident
